From the NIST ThermoML archive (doi:10.1021/je500772z)

Test: osmotic coefficient (dimensionless); mn = molality of the nth substance listed, in mol/kg
Settings: 298.15 K, Liquid, isopiestic method

CCCCn1cc[n+](C)c1.C[C@H](N)C(=O)[O-] [3-butyl-1-methyl-1H-imidazolium L-alaninate] + O
Settings | osmotic coefficient
m1 = 0 | 1
m1 = 0.0134 | 0.9617
m1 = 0.0183 | 0.9405
m1 = 0.0416 | 0.9262
m1 = 0.0612 | 0.9103
m1 = 0.0821 | 0.9008
m1 = 0.109 | 0.8865
m1 = 0.1518 | 0.8725
m1 = 0.1962 | 0.8661
m1 = 0.242 | 0.8654
m1 = 0.2834 | 0.863
m1 = 0.3192 | 0.8594
m1 = 0.3741 | 0.8633
m1 = 0.4453 | 0.8672
m1 = 0.5047 | 0.8715
m1 = 0.5755 | 0.8812

CC(C)[C@H](N)C(=O)[O-].CCCCn1cc[n+](C)c1 [1-butyl-3-methylimidazolium L-valinate] + O
Settings | osmotic coefficient
m1 = 0 | 1
m1 = 0.013 | 0.9595
m1 = 0.0202 | 0.9384
m1 = 0.0421 | 0.923
m1 = 0.0582 | 0.9121
m1 = 0.0723 | 0.9019
m1 = 0.1086 | 0.8899
m1 = 0.1458 | 0.8851
m1 = 0.1932 | 0.8794
m1 = 0.2434 | 0.8759
m1 = 0.2848 | 0.879
m1 = 0.3283 | 0.8828
m1 = 0.4013 | 0.8908
m1 = 0.4421 | 0.8986
m1 = 0.5035 | 0.9098
m1 = 0.576 | 0.9279

CC(C)C[C@H](N)C(=O)[O-].CCCCn1cc[n+](C)c1 [1-butyl-3-methylimidazolium L-leucinate] + O
Settings | osmotic coefficient
m1 = 0 | 1
m1 = 0.0117 | 0.9528
m1 = 0.0184 | 0.9362
m1 = 0.0387 | 0.9254
m1 = 0.0649 | 0.9104
m1 = 0.0795 | 0.9093
m1 = 0.1123 | 0.9025
m1 = 0.1532 | 0.8977
m1 = 0.1914 | 0.8982
m1 = 0.2319 | 0.9005
m1 = 0.2687 | 0.9029
m1 = 0.3111 | 0.9101
m1 = 0.3711 | 0.9187
m1 = 0.4373 | 0.9255
m1 = 0.4915 | 0.9328
m1 = 0.5503 | 0.9423

CCCCn1cc[n+](C)c1.NCC(=O)[O-] [1-butyl-3-methylimidazolium glycinate] + O
Settings | osmotic coefficient
m1 = 0 | 1
m1 = 0.0179 | 0.941
m1 = 0.0266 | 0.9408
m1 = 0.0509 | 0.9167
m1 = 0.0737 | 0.9076
m1 = 0.0978 | 0.8916
m1 = 0.1314 | 0.8739
m1 = 0.1811 | 0.8658
m1 = 0.2166 | 0.853
m1 = 0.263 | 0.8465
m1 = 0.3181 | 0.8432
m1 = 0.3693 | 0.8407
m1 = 0.4305 | 0.8405
m1 = 0.5055 | 0.8474
m1 = 0.5791 | 0.8523
m1 = 0.6439 | 0.8526
